Test results from the METLIN SMRT retention time set (Domingo-Almenara et al. 2019).

Assay: gradient 5% acetonitrile 3 min, to 50% in 2 min, to 85% in 15 min, held 3 min, 100 µL/min
Settings: column: Zorbax Extend-C18 2.1 x 50 mm; eluents: water / acetonitrile, 0.1% formic acid
How it was run: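 Over 3 months, pure standards in mixtures of ~100 molecules were run by HPLC coupled to a quadrupole time-of-flight mass spectrometer in positive and negative ionization mode. The column was a Zorbax Extend-C18 (2.1 × 50 mm, 1.8 μm) at 100 μL/min, eluted with water and acetonitrile each holding 0.1% formic acid, with 40 μL dead and 900 μL dwell volumes. Retention time was determined from adduct peaks chosen by software and checked manually.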

| Compound | RP-LC retention time |
| --- | --- |
| CC(C)S(=O)(=O)N1CCC2(CC1)NCCCN=C2Nc1cccc(F)c1 | 638 s |
| CN1[C@H]2C[C@H](OC(=O)[C@H](CO)c3ccccc3)C[C@@H]1[C@@H](O)C2 | 596 s |
| COC(=O)c1ccc(C2CC(=O)NC3=C2C(=O)CCC3)cc1 (centres undefined) | 653 s |
| COc1cccc(-c2nc3ccc(Cl)cn3c2Nc2ccc(Cl)cc2)c1 | 873 s |
| Cc1ccc(C)c(CNS(=O)(=O)c2c(C)sc(C)c2-c2n[nH]c(C)c2C)c1 | 1150 s |
| O=C(Cn1cccc1-c1nnc(C2CC2)o1)N1CCN(c2ccccc2)CC1 | 821 s |
| CCN(C(=O)C1CCCN1S(=O)(=O)c1cc2c(cc1Cl)NC(=O)CO2)c1cccc(C)c1 (centres undefined) | 816 s |
| O=C(CSc1ncnc2c(-c3ccccc3)c[nH]c12)Nc1ccc2c(c1)OCO2 | 824 s |
| O=C(NCc1ccc(F)cc1F)C1CCN(c2nnc(-c3ccccc3)o2)CC1 | 816 s |
| CCn1cc(C)c(C(=O)O)c1CC(=O)NCCN1CCc2ccccc2C1 | 629 s |
| CC(C)(C)C(=O)N1CCCC(c2ccnc(-c3cccc(F)c3)n2)C1 (centres undefined) | 1130 s |
| CCC(C)(C)NC(=O)c1ccc2c(c1)N(C(=O)NC)CC2 | 705 s |
| COc1cc(CNC(=O)c2nnc(-c3ccc(S(=O)(=O)N(C)C)cc3)o2)cc(OC)c1 | 846 s |
| Cn1nccc1C(=O)N1CC(c2nc(CCOCC3CCCC3)no2)C1 | 824 s |
| Cc1nnc2ccc(N3CCN(C(=O)Cc4cccc5ccccc45)CC3)nn12 | 660 s |
| Cc1oc(-c2ccc(NC(=O)COc3ccccc3)cc2)nc1Cn1cccn1 | 887 s |
| O=C(NCCCN1CCOCC1)C1CCc2sc(C(=O)N3CCOCC3)cc2C1 (centres undefined) | 568 s |
| CCCN1CCN(C(=O)CN2C(=O)C3CCCCN3c3ccc(S(=O)(=O)N(C)C)cc32)CC1 (centres undefined) | 628 s |
| CCn1c(=O)c2ccccc2n(Cc2nc(-c3cc(OC)c(OC)c(OC)c3)no2)c1=O | 936 s |
| COc1ccc(NC(=O)Cn2c(=O)n(-c3ccc(F)cc3)c(=O)c3c2cc(C)n3C)cc1Cl | 873 s |
| COc1ccccc1NC(=O)N1C[C@@H](F)C[C@H]1C(=O)N1CCOCC1 | 625 s |
| CCOc1ccccc1-c1nc(Cc2noc(-c3ccncc3)n2)c(C)o1 | 918 s |
| O=C(Nc1c(F)cccc1F)N1CCc2nc(-c3ccc(F)cc3)ncc2C1 | 932 s |

| Compound | RP-LC retention time |
| --- | --- |
| CC(C)N1C(=O)c2cccnc2Sc2cc(NC(=O)CCc3ccccc3)ccc21 | 922 s |
| COc1ccccc1-c1noc(C2CCCN2C(=O)c2ccc(NC(C)=O)cc2)n1 (centres undefined) | 713 s |
| Cc1nnc(N2CCCC(C(=O)NCCc3ccccc3)C2)c2nn(-c3ccc(Cl)cc3)c(C)c12 (centres undefined) | 789 s |
| CCOc1ccc(-c2cn3ccn(-c4ccc(Br)cc4)c(=O)c3n2)cc1 | 931 s |
| CCOc1ccc(NS(=O)(=O)c2cc(C(=O)N3CCN(c4cccc(Cl)c4)CC3)n[nH]2)cc1 | 980 s |
| CS(=O)(=O)N1CCC(Cc2ccc(C(=O)O)cc2)CC1 | 728 s |
| O=C(CN1C(=O)CCc2cc(Br)ccc21)Nc1ccccc1 | 889 s |
| CCOc1ccc(-c2nc(-c3ccc4c(c3)oc(=O)n4C)no2)cc1OCC | 1110 s |
| CCS(=O)(=O)c1nc2ccc(NS(=O)(=O)c3ccc4c(c3)OCCO4)cc2s1 | 826 s |
| COc1ccc(C2Cn3nnc(C(=O)N4CCC(C(=O)NC5CCCCC5)CC4)c3CO2)cc1 (centres undefined) | 860 s |
| CCCc1ccc(S(=O)(=O)N2CCC(n3cnc4ccc(C)cc4c3=O)CC2)cc1 | 1100 s |
| Cc1ccc(NC(=O)N2CCC(N3CCN(Cc4ccccc4)C3=O)CC2)cc1 | 822 s |
| COc1ccc(-c2cc3c(=O)n(Cc4nc(-c5ccccc5Br)no4)ncn3n2)cc1 | 1090 s |
| O=C(CCc1ccc2c(c1)CN(C(=O)C1CC1)CCO2)NC1CCS(=O)(=O)C1 (centres undefined) | 617 s |
| CCC1CN(C(=O)N2CCC(C(=O)NCCCN3CCCC3)CC2)c2ccccc2O1 (centres undefined) | 627 s |
| CCSc1ccccc1C(=O)Nc1cc(C(C)(C)C)nn1CCO | 781 s |
| Cc1ccc(Cn2c(N3CCC(C(=O)NC4CC4)CC3)nc3ccsc3c2=O)cc1 | 783 s |
| CCn1cc(S(=O)(=O)NCc2cc(F)cc(F)c2)c2cccnc21 | 828 s |
| CCOC(=O)c1nc(Nc2ccccc2OCC)c2c(CC)noc2n1 | 1100 s |
| O=c1cc(CSc2nnc(-c3ccccc3F)o2)nc2sccn12 | 745 s |
| CCc1cc(C(=O)Nc2ccc(C)cc2F)nc2ccnn12 | 1140 s |
| CCC(=O)N1CCCC1c1nc(CCOCC2CCCC2)no1 (centres undefined) | 837 s |
| O=C(c1ccc(Cn2c(=O)c3cccn3c3cccnc32)cc1)N1CCN(c2ccccn2)CC1 | 645 s |

| Compound | RP-LC retention time |
| --- | --- |
| Cc1ccc(Cc2noc(CN3CCCC3=O)n2)cc1 | 758 s |
| O=C(Nc1ccccc1Cl)N1CCC(n2c(C(F)(F)F)nc3cccnc32)CC1 | 912 s |
| COc1ccc(CN2C=C(C(=O)OCc3nc(-c4cccc(C)c4)no3)C(C)=NS2(=O)=O)cc1 | 1170 s |
| CN1C(=O)C(C)(C(=O)NC2CCCCC2)Oc2cccnc21 (centres undefined) | 784 s |
| COc1cc(NC(=O)CN2C(=O)CCc3cc(Br)ccc32)cc(OC)c1OC | 820 s |
| CCN(c1cccc(C)c1)S(=O)(=O)c1cc2n(c1)CCCNC2=O | 720 s |
| CCC(C)C(NC(=O)c1ccc(F)cc1)C(=O)Nc1nc2ccccc2[nH]1 (centres undefined) | 746 s |
| Cc1ccc(S(=O)(=O)N2CC(c3nnc(-c4ccncc4)o3)C3(CCOCC3)C2)cc1 (centres undefined) | 697 s |
| CCCN1C(=O)CCc2cc(NS(=O)(=O)c3ccccc3C(=O)OC)ccc21 | 845 s |
| Cc1cccc(C)c1NC(=O)NCc1ccco1 | 790 s |
| c1ccc(SCc2nnc3sc(-c4cnccn4)nn23)cc1 | 774 s |
| Cc1ccc(NS(=O)(=O)c2ccc3c4c(cccc24)C(=O)N3)c(C)c1 | 751 s |
| O=C(Nc1nncs1)C1CCN(C(=O)c2ccccc2F)CC1 | 641 s |
| Cc1ccc(NC(=O)N(C)CCc2noc(COc3cccc(C)c3)n2)cc1 | 972 s |
| COc1ccc(Br)cc1CNC(=O)Cn1cnc2nc3c(cc2c1=O)CCCC3 | 777 s |
| CCCCn1nnnc1NCc1ccc2c(c1)n(C)c(=O)n2C | 647 s |
| O=C(N[C@@H]1CN(c2ncccn2)C[C@H]1CO)C1CC=CC1 | 567 s |
| O=[N+]([O-])c1ccc(CSc2ncnc3c2ncn3[C@@H]2O[C@H](CO)[C@H](O)C2O)cc1 (some centres undefined) | 759 s |
| Cc1cc(C)cc(N2C(=O)CN(CC(C)C)[C@H]3CS(=O)(=O)C[C@H]32)c1 | 619 s |
| CCC(=O)N(CC(=O)N1CCc2sccc2C1COc1ccccc1OC)C(C)C (centres undefined) | 855 s |
| CC(C)n1c(N2CCN(C(=O)c3[nH]nc4c3CCc3ccccc3-4)CC2)cc(=O)n(C(C)C)c1=O | 872 s |
| COc1ccc(NC(=O)N2CCC3(CC2)NC(=O)c2ccccc2O3)c(OC)c1 | 728 s |
| CC(=O)NS(=O)(=O)c1ccc(NC(=O)NC2CC(=O)N(c3ccc(C)cc3)C2)cc1 (centres undefined) | 651 s |

| Compound | RP-LC retention time |
| --- | --- |
| CN(C)S(=O)(=O)c1ccc2c(c1)N(CC(=O)NC1CCCC1)C(=O)C1CCCCN21 (centres undefined) | 856 s |
| O=C(Cn1c(=O)oc2ccc(C(=O)N3CCCC3)cc21)N1CCN(c2cccc(Cl)c2)CC1 | 842 s |
| CCc1nc(N)n(CC(=O)Nc2cccc(C)c2C)c(=O)c1C | 638 s |
| COc1cc(-c2nnc(-c3cccc(S(=O)(=O)N4CCOCC4)c3)o2)cc(OC)c1OC | 852 s |
| Cc1ccc(-c2noc(-c3cccn(CC(=O)NC(C)C)c3=O)n2)cc1 | 764 s |
| Cc1ccc(F)c(NC(=O)C2CCc3nc(N4CCOCC4)ncc3C2)c1 (centres undefined) | 735 s |
| COC(=O)c1sccc1S(=O)(=O)N1CCN(S(=O)(=O)C2CC2)CC1 | 717 s |
| O=C(CCC1CCCC1)Nc1nc(-c2ccc(F)cc2)cs1 | 1210 s |
| O=c1n(Cc2ccc(F)cc2Cl)nc2ccc(S(=O)(=O)N3CCCCC3)cn12 | 990 s |
| Cc1cc(C)cc(NC(=O)c2cc(C)n3nccc3n2)c1 | 1020 s |
| CCOC(=O)C1CCCN(Cc2nc3nc(C)cc(N4CCC(C)CC4)n3n2)C1 (centres undefined) | 652 s |
| CC(C)c1nn2c(S(=O)(=O)NC3CCCC3)c(C(C)C)nc2s1 | 1050 s |
| Cc1sc2ncn(CC(=O)NCCCC(=O)N3CCCC(C)C3)c(=O)c2c1C (centres undefined) | 721 s |
| Cc1nc2ccc(NC(=O)c3ccc(Cn4ccnc4)cc3)cc2s1 | 565 s |
| COc1ccc2nc(C(=O)NC(C)c3ccc(F)cc3)cn2n1 (centres undefined) | 821 s |
| O=C1CC(CNS(=O)(=O)c2cccc(C(F)(F)F)c2)CN1c1ccc(Cl)cc1 (centres undefined) | 893 s |
| Cc1nn(C)cc1CN(C)C(=O)COc1ccc(NC(=O)C2CC2)cn1 | 604 s |
| CCS(=O)(=O)N1C[C@@H](COC)[C@H](C(N)=O)C1 | 560 s |
| CN1C(=O)COc2cc(-c3noc(C(=O)NCCCN4CCCC4)n3)ccc21 | 604 s |
| COC(=O)C1=C(CN2CCOCC2)NC(=O)NC1c1ccc(Cl)cc1 (centres undefined) | 566 s |
